Measured values from patent publication US20240261257A1, “METHODS OF TREATING BACTERIAL INFECTIONS” (Sheba Impact Ltd., priority 2023, published 2024).

Assays:
S. aureus ATCC 25923 = assay: broth microdilution growth inhibition (CLSI), S. aureus ATCC 25923; type: cell-based; conditions: CAMHB broth microdilution, read-out: concentration (μM) which inhibits 50% (or more) growth
Protocol: (§1) Iron-free enterobactin from E. coli was purchased from Sigma-Aldrich (E3910) and from EMC (Tübingen, Germany), iron-free salmochelin S4 was purchased from EMC (Tübingen, Germany).
(§2) Bacterial strains were provided by the Clinical Microbiology Laboratory at Sheba Medical Center.
(§3) Bacterial final inoculum was 5×10^5 colony-forming units ml^−1. Enterobactin and salmochelin were dissolved in 100% dimethylsulfoxide (DMSO) to a stock solution of 10 μM and further diluted using CAMHB to final concentrations.

MRSA SA 742 USA300 = assay: broth microdilution growth inhibition (CLSI), MRSA SA 742 USA300; type: cell-based, S. aureus; conditions: CAMHB broth microdilution, read-out: concentration (μM) which inhibits 50% (or more) growth
Protocol: as §1, §2, §3

MRSA SA 196 = assay: broth microdilution growth inhibition (CLSI), MRSA SA 196; type: cell-based, S. aureus; conditions: CAMHB broth microdilution, read-out: concentration (μM) which inhibits 50% (or more) growth
Protocol: as §1, §2, §3

MSSA SA 197 USA300 = assay: broth microdilution growth inhibition (CLSI), MSSA SA 197 USA300; type: cell-based, S. aureus; conditions: CAMHB broth microdilution, read-out: concentration (μM) which inhibits 50% (or more) growth
Protocol: as §1, §2, §3

MRSA SA 198 USA300 = assay: broth microdilution growth inhibition (CLSI), MRSA SA 198; type: cell-based, S. aureus; conditions: CAMHB broth microdilution, read-out: concentration (μM) which inhibits 50% (or more) growth
Protocol: as §1, §2, §3

MRSA SA 255 = assay: broth microdilution growth inhibition (CLSI), MRSA SA 255; type: cell-based, S. aureus; conditions: CAMHB broth microdilution, read-out: concentration (μM) which inhibits 50% (or more) growth
Protocol: as §1, §2, §3

MSSA SA 256 = assay: broth microdilution growth inhibition (CLSI), MSSA SA 256; type: cell-based, S. aureus; conditions: CAMHB broth microdilution, read-out: concentration (μM) which inhibits 50% (or more) growth
Protocol: as §1, §2, §3

[1] = system: clinical isolates of MRSA USA300; assay: inhibitory effect on clinical isolates of MRSA USA300 (FIGS. 1A-B); type: cell-based, Staphylococcus aureus
Protocol: as §1, §2, §3

VRE 195 = assay: inhibitory effect on clinical isolate VRE 195; type: cell-based, vancomycin resistant Enterococci; conditions: FIG. 2A, FIG. 3A
Protocol: as §1, §2, §3

VRE 197 = assay: inhibitory effect on clinical isolate VRE 197; type: cell-based, vancomycin resistant Enterococci; conditions: FIG. 2B, FIG. 3B
Protocol: as §1, §2, §3

S. aureus = assay: antimicrobial activity against S. aureus (combinations, iron ions; strain not named); type: cell-based; conditions: iron ions added; FIGS. 6A-B
Protocol: as §1, §2, §3

Compound | IC50 (S. aureus ATCC 25923) | IC50 (MRSA SA 742 USA300) | IC50 (MRSA SA 196) | IC50 (MSSA SA 197 USA300) | IC50 (MRSA SA 198 USA300) | IC50 (MRSA SA 255) | IC50 (MSSA SA 256) | inhibitory effect on clinical isolates of MRSA USA300 [1] | inhibitory effect on clinical isolates of VRE 195 (VRE 195) | inhibitory effect on clinical isolates of VRE 197 (VRE 197) | antimicrobial activity against S. aureus in the presence of iron ions (S. aureus)
O=C(N[C@H]1COC(=O)[C@@H](NC(=O)c2cc([C@@H]3O[C@H](CO)[C@@H](O)[C@H](O)[C@H]3O)cc(O)c2O)COC(=O)[C@@H](NC(=O)c2cc([C@@H]3O[C@H](CO)[C@@H](O)[C@H](O)[C@H]3O)cc(O)c2O)COC1=O)c1cccc(O)c1O [Salmochelin, Salmochelin S4] | 2.4 ± 0.22 µM | 3.12 ± 1.25 µM | 2.5 µM | 2.5 µM | 5 µM | 5 µM | 5 µM | inhibitory effect | inhibitory effect | inhibitory effect | reduce but do not abolish
O=C(N[C@H]1COC(=O)[C@@H](NC(=O)c2cccc(O)c2O)COC(=O)[C@@H](NC(=O)c2cccc(O)c2O)COC1=O)c1cccc(O)c1O [Enterobactin, enterobactin] | 6 ± 2.7 µM | 10 µM | 5 µM | > 5 µM | > 5 µM | > 5 µM | > 5 µM | inhibitory effect | inhibitory effect | inhibitory effect | reduce but do not abolish
